{
  "source": "patent US20160031863A1",
  "about": "“HISTONE DEACETYLASE INHIBITORS AND COMPOSITIONS AND METHODS OF USE THEREOF” (CHDI FOUNDATION, INC., priority 2013, published 2016)",
  "key": {"[1]": {"system": "cellular histone deacetylase enzymatic activity in Jurkat E6-1 cells", "assay": "Inhibition of cellular HDAC activity in Jurkat E6-1 cells, fluorogenic substrate Boc-Lys(Tfa)-AMC", "assay_type": "cell-based", "conditions": "Homo sapiens", "description": "The potency of the compounds is quantified by measuring the cellular histone deacetylase enzymatic activity using the fluorogenic substrate, Boc-Lys(Tfa)-AMC. After penetration in Jurkat E6-1 cells, the substrate is deacetylated to Boc-Lys-AMC. After cell lysis and cleavage by trypsin, the fluorophore AMC is released from the deacetylated substrate only. The fluorescence of the sample is directly related to the histone deacetylase activity in the sample.\nJurkat E6.1 cells are cultured according to standard cell culture protocols in Jurkat E6.1 Growth Media (RPMI without phenol red, 10% FBS, 10 mM HEPES, and 1 mM Sodium Pyruvate). Jurkat E6.1 cells are counted using a Coulter Counter and resuspended in Jurkat E6.1 growth media at a concentration of 75,000 cells/35 μL. 35 μL or 75,000 cells is seeded into Greiner microtitre assay plates. The plates are then incubated at 37° C. and 5% CO2 while other assay components are being prepared.\n(§1) Serial dilutions of the compounds being tested and control reference compound (1-(5-(3-((4-(1,3,4-oxadiazol-2-yl)phenoxy)methyl)-1,2,4-oxadiazol-5-yl)thiophen-2-yl)-2,2,2-trifluoroethanone) are made by first resuspending the lyophilized compound to a final concentration of 10 mM in 100% DMSO. Stocks of 70 μL aliquots of the 10 mM compound in DMSO are prepared and stored at −20° C. From one stock aliquot of each compound to be tested and the reference compound, a 16-point serial dilution is prepared according to Table 1 using a 125 μL 16-channel Matrix multi-channel pipette.\n2 μL (200×) of each diluted solution and each control (full activity: 100% DMSO alone or full inhibition 1 mM) is stamped into V-bottom polypropylene 384-well compound plates using either the Bravo, Janus, or 12.5 μL 16-channel Matrix multi-channel pipette. Each well with the 200× compound solution is diluted 1:20 by the addition of 38 μL Jurkat assay buffer+DMSO (9.5% DMSO, RPMI without phenol red, 0.09% FBS, 9 mM Hepes, and 0.9 mM Sodium Pyruvate equilibrated to room temperature)\n5× (500 μM) substrate is prepared just prior to the addition to the assay. The 5× substrate is prepared by diluting a 100 mM Boc-Lys(Tfa)-AMC in DMSO solution 1:200 by adding it drop-wise to Jurkat assay medium (RPMI without phenol red, 0.1% FBS, 10 mM Hepes, and 1 mM Sodium Pyruvate equilibrated to 37° C.) while vortexing at slow speed to prevent precipitation.\n10 mL of 3× lysis buffer is prepared with 8.8 ml of 3× stock lysis buffer (50 mM Tris-HCl, pH 8.0, 137 mM NaCl, 2.7 mM KCl, 1 mM MgCl2, 1% Nonidet P40 Substitute equilibrated to room temperature) and 1.2 mL of 3 mg/mL Trypsin equilibrated to room temperature.\n5 μL of each solution of 1:20 diluted compound from above is transferred to the Greiner microtitre assay plates with 75,000 cells/well using the Bravo. Cells are then incubated for 2 hours at 37° C. and 5% CO2. The assay is then started by adding 10 μL of 5× (500 μM) substrate to the assay plate using either the Bravo or 16-channel Matrix multi-channel pipette. The cells are then incubated for 3 hours at 37° C. and 5% CO2. Next, 25 μL of 3× lysis buffer is added to each well using either the 125 μL 16 channel pipette or the Bravo. The assay plate is then incubated overnight (15-16 hours) at 37° C. and 5% CO2. The following day, the plates are shaken on an orbital shaker for 1 minute at 900 rpm. Finally the top read fluorescence (Excitation: 355 nm, Emission: 460 nm) is measured using PerkinElmer EnVision."}, "[2]": {"target": "T1, Histone Deacetylase 4 (HDAC4) catalytic domain (Homo sapiens, UniProt P56524)", "T1 construct": "6x histidine tag (C); purchased BioFocus", "T1 sequence (P56524 648-1032)": "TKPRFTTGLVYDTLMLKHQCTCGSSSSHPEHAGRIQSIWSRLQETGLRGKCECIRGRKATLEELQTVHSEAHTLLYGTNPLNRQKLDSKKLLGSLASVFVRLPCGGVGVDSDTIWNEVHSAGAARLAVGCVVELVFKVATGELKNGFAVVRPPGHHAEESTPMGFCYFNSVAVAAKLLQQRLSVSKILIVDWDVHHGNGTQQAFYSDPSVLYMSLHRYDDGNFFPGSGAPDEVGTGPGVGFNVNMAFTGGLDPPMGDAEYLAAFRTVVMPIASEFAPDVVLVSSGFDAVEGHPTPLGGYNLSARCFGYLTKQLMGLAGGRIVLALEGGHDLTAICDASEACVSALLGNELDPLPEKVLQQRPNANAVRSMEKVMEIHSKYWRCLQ", "assay": "Inhibition of HDAC4 catalytic domain enzymatic activity, fluorogenic substrate Boc-Lys(Tfa)-AMC", "assay_type": "biochemical", "excerpt": "The potency of compounds is quantified by measuring the Histone Deacetylase 4 (HDAC4) catalytic domain enzymatic activity using the fluorogenic substrate, Boc-Lys(Tfa)-AMC. The substrate is deacetylated to Boc-Lys-AMC by HDAC4. Cleavage by trypsin results in the release of the fluorophore AMC from the deacetylated substrate. The fluorescence of the sample is directly related to the histone deacetylase activity in the sample.\nas §1, with “dimethyl sulfoxide (DMSO).” for “DMSO.”, “60” for “70”, “pipette (Matrix Technologies Ltd).” for “pipette.”\n2 μL (200×) of each diluted solution and each control (full activity: 100% DMSO alone or full inhibition 1 mM) is stamped into V-bottomed polypropylene 384-well compound plates using either the Bravo (384-well head from Agilent) or 12.5 μL 16-channel Matrix multi-channel pipette (Matrix Technologies Ltd).\nA working solution of enzyme is prepared from a 500 μg/mL stock aliquot of HDAC4 catalytic domain (thawed on ice) diluted to 0.2 μg/mL with assay buffer (50 mM Tris-HCl, 137 mM NaCl, 2.7 mM KCl, and 1 mM MgCl2 at pH 8 and equilibrated to room temperature) just prior to the addition of the enzyme to the assay.\n5× (50 μM) substrate is prepared just prior to the addition to the assay. A 1 mM substrate stock is made by diluting a 100 mM Boc-Lys(Tfa)-AMC in DMSO solution 1:100 by adding it drop-wise to assay buffer (equilibrated to room temperature) while vortexing at slow speed to prevent precipitation. The 5× substrate is prepared by diluting the 1 mM substrate solution 1:20 by adding it drop-wise to assay buffer (equilibrated to room temperature) while vortexing at slow speed to prevent precipitation.\n3× (30 μM) Developer/Stop Solution is prepared just prior to addition to the plate by diluting a stock solution of 10 mM reference compound 1:333 in 25 mg/mL trypsin (PAA Laboratories Ltd.) equilibrated to room temperature.\n5 μL of each solution of 1:20 diluted compound from above is transferred to a clear bottomed, black, 384-well assay plate using the Bravo or the Janus (384-well MDT head from Perkin Elmer). Using a 16-channel Matrix multi-channel pipette, 35 μL of the working solution of HDAC4 catalytic domain enzyme (0.2 μg/mL in assay buffer) is transferred to the assay plate. The assay is then started by adding 10 μL of 5× (50 μM) substrate to the assay plates using either the Bravo, Janus or 16-channel Matrix multi-channel pipette. The assay plate is then shaken for two minutes on an orbital shaker at 900 rpm (rotations per minute). Next the plate is incubated for 15 minutes at 37° C. The reaction is stopped by adding 25 μL of 3× (30 μM) developer/stop solution to the assay plates using either the Bravo, Janus or a 16-channel Matrix multi-channel pipette. Assay plates are then shaken for 5 minutes on an orbital shaker at 1200 rpm. Next, the assay plates are incubated at 37° C. for 1 hour in a tissue culture incubator. Finally, the fluorescence is measured (Excitation: 355 nm, Emission: 460 nm) using PerkinElmer EnVision in top read mode."}},
  "data": [
    {"compound": "O=C(NO)c1cc(-c2cncc(Cl)c2)nn1-c1ccccc1", "note": "[Example 8]", "values": [
      {"measurement": "IC50", "setting": "[1]", "value": 41.6, "unit": "µM"},
      {"measurement": "IC50", "setting": "[2]", "value": 4.9, "unit": "µM"}
    ]},
    {"compound": "O=C(NO)c1cc(N2CCCC2)nn1-c1ccccc1", "note": "[Example 14, N-Hydroxy-1-phenyl-3-pyrrolidin-1-yl-1H-pyrazole-5-carboxamide]", "values": [
      {"measurement": "IC50", "setting": "[1]", "value": 46.2, "unit": "µM"},
      {"measurement": "IC50", "setting": "[2]", "value": 9.9, "unit": "µM"}
    ]},
    {"compound": "Cc1ccccc1-c1cc(C(=O)NO)n(-c2cccc(F)c2C)n1", "note": "[Example 10, N-hydroxy-1-(3-fluoro-2-methyl-phenyl)-3-(2-methyl-phenyl)-1H-pyrazole-5-carboxamide]", "values": [
      {"measurement": "IC50", "setting": "[1]", "value": 5.68, "unit": "µM"},
      {"measurement": "IC50", "setting": "[2]", "value": 0.75, "unit": "µM"}
    ]},
    {"compound": "CN1CC=C(c2cc(C(=O)NO)n(-c3ccccc3)n2)CC1", "note": "[Example 11, N-Hydroxy-3-(1-methyl-3,6-dihydro-2H-pyridin-4-yl)-1-phenyl-1H-pyrazole-5-carboxamide]", "values": [
      {"measurement": "IC50", "setting": "[1]", "value": 4.07, "unit": "µM"},
      {"measurement": "IC50", "setting": "[2]", "value": 0.24, "unit": "µM"}
    ]},
    {"compound": "O=C(NO)c1cc(-c2cccc3ccsc23)nn1-c1ccccc1", "note": "[Example 2, N-Hydroxy-3-(benzothiophen-7-yl)-1-phenyl-1H-pyrazole-5-carboxamide]", "values": [
      {"measurement": "IC50", "setting": "[1]", "value": 2.72, "unit": "µM"},
      {"measurement": "IC50", "setting": "[2]", "value": 0.12, "unit": "µM"}
    ]},
    {"compound": "O=C(NO)c1cc(-c2ccccc2)nn1-c1ccccc1", "note": "[Example 1, N-Hydroxy-1,3-diphenylpyrazole-5-carboxamide]", "values": [
      {"measurement": "IC50", "setting": "[1]", "value": 24.2, "unit": "µM"},
      {"measurement": "IC50", "setting": "[2]", "value": 10.3, "unit": "µM"}
    ]},
    {"compound": "Cc1ccccc1-c1cc(C(=O)NO)n(-c2ccccc2)c1", "note": "[Example 15, N-Hydroxy-4-(2-methylphenyl)-1-phenyl-pyrrole-2-carboxamide]", "values": [
      {"measurement": "IC50", "setting": "[1]", "value": 13.8, "unit": "µM"},
      {"measurement": "IC50", "setting": "[2]", "value": 1.4, "unit": "µM"}
    ]},
    {"compound": "O=C(NO)c1cc(Cc2ccccc2)nn1-c1ccccc1", "note": "[Example 4, N-Hydroxy-3-benzyl-1-phenyl-1H-pyrazole-5-carboxamide]", "values": [
      {"measurement": "IC50", "setting": "[1]", "value": 10.2, "unit": "µM"},
      {"measurement": "IC50", "setting": "[2]", "value": 0.96, "unit": "µM"}
    ]},
    {"compound": "Cc1ccccc1-c1cc(C(=O)NO)n(-c2ccccc2)n1", "note": "[Example 3, N-Hydroxy-3-(2-methylphenyl)-1-phenyl-1H-pyrazole-5-carboxamide]", "values": [
      {"measurement": "IC50", "setting": "[1]", "value": 7.3, "unit": "µM"},
      {"measurement": "IC50", "setting": "[2]", "value": 0.94, "unit": "µM"}
    ]},
    {"compound": "O=C(NO)c1cc(C2CCCC2)nn1-c1ccccc1", "note": "[Example 7, N-Hydroxy-3-cyclopentyl-1-phenyl-1H-pyrazole-5-carboxamide]", "values": [
      {"measurement": "IC50", "setting": "[1]", "value": 12.1, "unit": "µM"},
      {"measurement": "IC50", "setting": "[2]", "value": 1.8, "unit": "µM"}
    ]},
    {"compound": "O=C(NO)c1cc(-c2ccccc2Cl)cn1-c1ccccc1", "note": "[Example 16, N-Hydroxy-4-(2-chlorophenyl)-1-phenyl-pyrrole-2-carboxamide]", "values": [
      {"measurement": "IC50", "setting": "[1]", "value": 6.17, "unit": "µM"},
      {"measurement": "IC50", "setting": "[2]", "value": 0.71, "unit": "µM"}
    ]},
    {"compound": "Cc1ncccc1-c1cc(C(=O)NO)n(-c2ccccc2)n1", "note": "[Example 9, N-Hydroxy-3-(2-methyl-3-pyridyl)-1-phenyl-1H-pyrazole-5-carboxamide]", "values": [
      {"measurement": "IC50", "setting": "[1]", "value": 6.9, "unit": "µM"},
      {"measurement": "IC50", "setting": "[2]", "value": 1.4, "unit": "µM"}
    ]},
    {"compound": "O=C(NO)c1cc(-c2ccccc2Cl)nn1-c1ccccc1", "note": "[Example 5, N-Hydroxy-3-(2-chlorophenyl)-1-phenyl-1H-pyrazole-5-carboxamide]", "values": [
      {"measurement": "IC50", "setting": "[1]", "value": 2.82, "unit": "µM"},
      {"measurement": "IC50", "setting": "[2]", "value": 0.38, "unit": "µM"}
    ]},
    {"compound": "O=C(NO)c1cc(C2=CCCC2)nn1-c1ccccc1", "note": "[Example 6, N-Hydroxy-3-(cyclopenten-1-yl)-1-phenyl-1H-pyrazole-5-carboxamide]", "values": [
      {"measurement": "IC50", "setting": "[1]", "value": 20.3, "unit": "µM"},
      {"measurement": "IC50", "setting": "[2]", "value": 2.7, "unit": "µM"}
    ]},
    {"compound": "Cc1ccccc1-c1cc(C(=O)NO)n(-c2ccccc2C)n1", "note": "[Example 12, N-Hydroxy-1,3-bis(2-methylphenyl)-1H-pyrazole-5-carboxamide]", "values": [
      {"measurement": "IC50", "setting": "[1]", "value": 16, "unit": "µM"},
      {"measurement": "IC50", "setting": "[2]", "value": 2.4, "unit": "µM"}
    ]},
    {"compound": "O=C(NO)c1cc(OCc2ccccc2)nn1-c1ccccc1", "note": "[Example 13, N-Hydroxy-3-benzyloxy-1-phenyl-1H-pyrazole-5-carboxamide]", "values": [
      {"measurement": "IC50", "setting": "[1]", "value": "> 50", "unit": "µM"},
      {"measurement": "IC50", "setting": "[2]", "value": 27.5, "unit": "µM"}
    ]}
  ]
}
